# What was measured:
# [1] = logP by LC-MS on reversed-phase columns (C 18), method [b], acidic range pH 2.7; format: physicochemical; conditions: for chromatographic logP: pH 2.7, log p
# Experimental: (§1) The logP values were determined in accordance with EEC Directive 79/831 Annex V.A8 by HPLC (High Performance Liquid Chromatography) on reversed-phase columns (C 18), using the methods below:
# [b] The LC-MS determination in the acidic range is carried out at pH 2.7 using the mobile phases 0.1% aqueous formic acid and acetonitrile (contains 0.1% formic acid), linear gradient from 10% acetonitrile to 95% acetonitrile.
# Sphaerotheca fuliginea = test: Sphaerotheca test (cucumber) / protective; format: in vivo; conditions: Podosphaera fuliginea, 168 h, active compound concentration 500 ppm, evaluation 7 days after inoculation, read-out: efficacy
# Experimental: The plants are subsequently placed in a greenhouse at 70% relative atmospheric humidity and a temperature of 23° C.
# Leptosphaeria nodorum = Leptosphaeria nodorum test (wheat) / protective; format: in vivo; conditions: Parastagonospora nodorum, active compound concentration 500 ppm, evaluation 7-9 days after inoculation, read-out: efficacy
# Experimental: Thereafter, the plants are placed in a greenhouse at 90% relative atmospheric humidity and a temperature of 22° C.
# [2] = logP by LC-MS on reversed-phase columns (C 18), method [c], neutral range pH 7.8; format: physicochemical
# Experimental: as §1
# [c] The LC-MS determination in the neutral range is carried out at pH 7.8 using the mobile phases 0.001 molar aqueous ammonium bicarbonate solution and acetonitrile, linear gradient from 10% acetonitrile to 95% acetonitrile.
# [3] = method [b], LC-MS, acidic range pH 2.7
# [4] = method [c], LC-MS, neutral range pH 7.8
SMILES,chromatographic logP [1],pest or weed control at 500 ppm (Leptosphaeria nodorum) [%],chromatographic logP ([2]; pH 7.8),other results
CCSCc1cccc(Nc2ncc(Cl)c(NCC(F)(F)F)n2)c1 [Example 32],3.49,–,–,pest or weed control at 500 ppm (Sphaerotheca fuliginea): ≥ 70%
COC(C)c1cccc(Nc2ncc(Cl)c(NC3CC3C)n2)c1 (stereo not shown) [Example 228],0.95,≥ 70,–,pest or weed control at 500 ppm (Sphaerotheca fuliginea): ≥ 70%
CCC(C)S(=O)(=O)C(C)c1cccc(Nc2ncc(C(F)(F)F)c(NC3CC3)n2)c1 (stereo not shown) [Example 187],3.14,≥ 70,3.34,pest or weed control at 500 ppm (Sphaerotheca fuliginea): ≥ 70%
CCOCCSc1cccc(Nc2ncc(Cl)c(NC3CC3)n2)c1 [Example 189],2.7,≥ 70,3.76,–
CCCNc1nc(Nc2cccc(COC)c2)ncc1Cl [Example 149],1.72,≥ 70,–,pest or weed control at 500 ppm (Sphaerotheca fuliginea): ≥ 70%
COCc1cccc(Nc2ncc(Cl)c(NCC(F)F)n2)c1 [Example 22],1.99,≥ 70,–,pest or weed control at 500 ppm (Sphaerotheca fuliginea): ≥ 70%
CCCCS(=O)(=O)c1cccc(Nc2ncc(Cl)c(NC3CC3)n2)c1 [Example 123],2.65,≥ 70,3.18,–
CCCSc1cccc(Nc2ncc(C(F)(F)F)c(NC3CC3C)n2)c1 (stereo not shown) [Example 235],4.9,≥ 70,5.23,–
CSC(C)c1cccc(Nc2ncc(C(F)(F)F)c(NC3CCC3)n2)c1 (stereo not shown) [Example 18],4.34,≥ 70,–,pest or weed control at 500 ppm (Sphaerotheca fuliginea): ≥ 70%
CCC(C)Sc1cccc(Nc2ncc(C(F)(F)F)c(NC3CC3)n2)c1 (stereo not shown) [Example 188],4.9,≥ 70,5.01,–
CCCCS(=O)(=O)c1cccc(Nc2ncc(Cl)c(NC3CCC3)n2)c1 [Example 170],3.09,≥ 70,3.69,–
COCC(=O)c1cccc(Nc2ncc(C(F)(F)F)c(NC3CC3)n2)c1 [Example 225],2.54,≥ 70,–,pest or weed control at 500 ppm (Sphaerotheca fuliginea): ≥ 70%
COCc1cccc(Nc2ncc(Cl)c(NCC(C)C)n2)c1 [Example 148],2.08,≥ 70,–,pest or weed control at 500 ppm (Sphaerotheca fuliginea): ≥ 70%
CCCCSc1cccc(Nc2ncc(C(F)(F)F)c(NC3CCC3)n2)c1 [Example 128],5.55,≥ 70,5.78,–
CC[S+]([O-])c1cccc(Nc2ncc(C(F)(F)F)c(NC3CC(C)C3)n2)c1 (stereo not shown) [Example 242],2.98,–,3.32,–
CCCCS(=O)(=O)c1cccc(Nc2ncc(C(F)(F)F)c(NC3CCC3)n2)c1 [Example 202],3.91,≥ 70,4.01,–
CCCC(C)SC(C)c1cccc(Nc2ncc(Cl)c(NC3CC3)n2)c1 (stereo not shown) [Example 134],–,–,–,log p ([1]; pH 2.7): 4.24[b]; log p ([2]; pH 7.8): 5.55[c];
CCCSc1cccc(Nc2ncc(Br)c(NC3CC3C)n2)c1 (stereo not shown) [Example 99],–,–,–,"log p [1, 3]: 3.83[b]; log p [2, 4]: 5.09[c];"
CCCC[S+]([O-])c1cccc(Nc2ncc(C(F)(F)F)c(NC3CC3)n2)c1 (stereo not shown) [Example 122],2.94,–,3.02,–
COCCOc1cccc(Nc2ncc(Br)c(NC3CC3)n2)c1 [Example 67],1.95,≥ 70,–,pest or weed control at 500 ppm (Sphaerotheca fuliginea): ≥ 70%
CCSc1cccc(Nc2ncc(C(F)(F)F)c(NC3CC(C)C3)n2)c1 (stereo not shown) [Example 234],4.09,≥ 70,5.34,–
COCCOC(c1cccc(Nc2ncc(Cl)c(NC3CC3)n2)c1)C(F)(F)F (stereo not shown) [Example 215],–,–,–,log p ([1]; pH 2.7): 2.63[b]; log p ([2]; pH 7.8): 3.61[c];

SMILES,chromatographic logP [1],pest or weed control at 500 ppm (Leptosphaeria nodorum) [%],chromatographic logP ([2]; pH 7.8),other results
CCCSc1cccc(Nc2ncc(C(F)(F)F)c(NC3CCC3)n2)c1 [Example 155],5.01,≥ 70,5.43,–
COCc1cccc(Nc2ncc(Cl)c(N3CCCCC3)n2)c1 [Example 89],–,–,–,log p ([1]; pH 2.7): 3.14[b]; log p ([2]; pH 7.8): 4.2[c];
CC(C)CS(=O)(=O)c1cccc(Nc2ncc(Cl)c(NC3CC3)n2)c1 [Example 161],2.64,≥ 70,3.23,–
COCCOC(C)c1cccc(Nc2ncc(Cl)c(NC3CC3)n2)c1 (stereo not shown) [Example 243],2,–,3.26,–
COCC(C)Oc1ccc(Nc2ncc(C(F)(F)F)c(NC3CC3)n2)cc1C(F)(F)F (stereo not shown) [Example 80],–,–,–,log p ([1]; pH 2.7): 4.05[b]; log p ([2]; pH 7.8): 4.28[c];
COCc1cccc(Nc2ncc(Cl)c(N3CCOCC3)n2)c1 [Example 90],–,–,–,log p ([1]; pH 2.7): 2.4[b]; log p ([2]; pH 7.8): 2.87[c];
CCCSc1cccc(Nc2ncc(Cl)c(NCC(F)(F)F)n2)c1 [Example 30],4.08,–,–,pest or weed control at 500 ppm (Sphaerotheca fuliginea): ≥ 70%
COC(C)c1cccc(Nc2ncc(Cl)c(NC(C)C3(Cl)CC3)n2)c1 (stereo not shown) [Example 130],–,–,–,log p ([1]; pH 2.7): 3.72[b]; log p ([2]; pH 7.8): 4.65[c];
CCCC(C)[S+]([O-])C(C)c1cccc(Nc2ncc(Cl)c(NC3CC3)n2)c1 (stereo not shown) [Example 166],–,–,–,log p ([1]; pH 2.7): 2.2[b]; log p ([2]; pH 7.8): 3.1[c];
COCCOC(c1cccc(Nc2ncc(C(F)(F)F)c(NC3CC3)n2)c1)C(F)(F)F (stereo not shown) [Example 216],–,–,–,log p ([1]; pH 2.7): 3.72[b]; log p ([2]; pH 7.8): 3.9[c];
CC[S+]([O-])C(C)c1cccc(Nc2ncc(Cl)c(NC3CC3)n2)c1 (stereo not shown) [Example 74],1.48,≥ 70,2.16,–
COCc1cccc(Nc2ncc(Br)c(NC3CC3C)n2)c1 (stereo not shown) [Example 84],–,–,–,"log p [1, 3]: 2.15[b]; log p [2, 4]: 3.59[c];"
CCCCSc1cccc(Nc2ncc(Br)c(NC3CCC3)n2)c1 [Example 104],4.57,≥ 70,5.71,–
CCCS(=O)(=O)c1cccc(Nc2ncc(C(F)(F)F)c(NC3CC3C)n2)c1 (stereo not shown) [Example 245],3.43,–,3.61,–
CCSc1cccc(Nc2ncc(C(F)(F)F)c(NC3CCC3C)n2)c1 (stereo not shown) [Example 233],4.89,–,5.27,–
CCSCc1cccc(Nc2ncc(Br)c(NC3CC3)n2)c1 [Example 218],2.79,≥ 70,–,pest or weed control at 500 ppm (Sphaerotheca fuliginea): ≥ 70%
CNc1nc(Nc2cccc(COC)c2)ncc1Cl [Example 172],1.18,–,2.44,–
CCCS(=O)(=O)c1cccc(Nc2ncc(Br)c(NC3CC3)n2)c1 [Example 110],2.43,≥ 70,2.99,–
CCOCCOCCSc1cccc(Nc2ncc(Cl)c(NC3CC3)n2)c1 [Example 180],–,–,–,log p ([1]; pH 2.7): 2.58[b]; log p ([2]; pH 7.8): 3.63[c];
COCC(C)Oc1ccc(Nc2ncc(C(F)(F)F)c(NC3CC3)n2)cc1 (stereo not shown) [Example 88],–,–,–,log p ([1]; pH 2.7): 2.71[b]; log p ([2]; pH 7.8): 3.45[c];
CCOC(C)c1cccc(Nc2ncc(C(F)(F)F)c(NC3CC3)n2)c1 (stereo not shown) [Example 258],3.6,–,4.12,–
COC(C)c1cccc(Nc2ncc(C(F)(F)F)c(NC3CC3C)n2)c1 (stereo not shown) [Example 229],3.61,≥ 70,4.1,–

# — patent US20110245284A1, “Alkoxy- and Alkylthio-Substituted Anilinopyrimidines” (Bayer CropScience AG, priority 2008, published 2011)
